We go through 2 compounds from PMC4281712, “ATPase-dependent auto-phosphorylation of the open condensin hinge diminishes DNA binding” (Open Biology, 2014).

Each structure is given as a SMILES string.

For assay [1], the target named is T1, Cut3–Cut14 (condensin SMC heterodimer; Cut3/SMC4–Cut14/SMC2) (Schizosaccharomyces pombe, UniProt P41003+P41004).
T1 construct: full-length SMC heterodimer co-overproduced in S. pombe; C-terminal tags kept (Cut14-3HA-His6; Cut3 mutants 8Myc)
T1 sequence (P41004 1-1324): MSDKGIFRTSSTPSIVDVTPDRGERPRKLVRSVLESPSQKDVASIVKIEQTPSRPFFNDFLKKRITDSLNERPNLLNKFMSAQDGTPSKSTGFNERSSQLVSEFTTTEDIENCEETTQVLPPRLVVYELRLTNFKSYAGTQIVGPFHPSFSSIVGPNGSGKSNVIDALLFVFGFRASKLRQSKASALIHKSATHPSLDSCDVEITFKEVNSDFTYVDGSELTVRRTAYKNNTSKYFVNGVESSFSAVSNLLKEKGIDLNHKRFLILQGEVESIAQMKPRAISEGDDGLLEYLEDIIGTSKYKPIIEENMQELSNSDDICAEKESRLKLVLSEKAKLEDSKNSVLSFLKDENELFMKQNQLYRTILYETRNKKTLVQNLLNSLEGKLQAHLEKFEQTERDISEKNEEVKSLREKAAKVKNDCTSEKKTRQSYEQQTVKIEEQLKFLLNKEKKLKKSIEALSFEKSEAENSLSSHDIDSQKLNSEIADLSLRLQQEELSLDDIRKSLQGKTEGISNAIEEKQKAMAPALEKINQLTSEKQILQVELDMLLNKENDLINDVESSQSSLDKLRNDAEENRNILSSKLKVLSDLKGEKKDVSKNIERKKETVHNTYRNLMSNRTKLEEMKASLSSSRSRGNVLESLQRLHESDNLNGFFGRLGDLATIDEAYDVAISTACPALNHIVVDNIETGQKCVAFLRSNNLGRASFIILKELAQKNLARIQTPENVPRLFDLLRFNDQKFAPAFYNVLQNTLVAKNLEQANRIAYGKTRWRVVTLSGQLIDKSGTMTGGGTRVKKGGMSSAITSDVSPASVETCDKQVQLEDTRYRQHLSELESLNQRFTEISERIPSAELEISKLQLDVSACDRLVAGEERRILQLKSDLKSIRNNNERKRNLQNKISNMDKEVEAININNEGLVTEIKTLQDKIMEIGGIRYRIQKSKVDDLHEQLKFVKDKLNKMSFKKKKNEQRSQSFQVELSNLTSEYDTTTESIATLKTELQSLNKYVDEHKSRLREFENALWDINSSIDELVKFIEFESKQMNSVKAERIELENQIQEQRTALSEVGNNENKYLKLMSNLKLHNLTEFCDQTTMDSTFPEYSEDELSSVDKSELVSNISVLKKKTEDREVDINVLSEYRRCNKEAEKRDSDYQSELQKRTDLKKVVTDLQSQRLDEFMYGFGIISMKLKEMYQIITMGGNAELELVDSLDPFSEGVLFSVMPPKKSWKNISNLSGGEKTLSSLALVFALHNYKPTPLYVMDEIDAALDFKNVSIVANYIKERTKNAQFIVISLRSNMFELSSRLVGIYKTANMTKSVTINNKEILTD
T1 sequence (P41003 1-1172): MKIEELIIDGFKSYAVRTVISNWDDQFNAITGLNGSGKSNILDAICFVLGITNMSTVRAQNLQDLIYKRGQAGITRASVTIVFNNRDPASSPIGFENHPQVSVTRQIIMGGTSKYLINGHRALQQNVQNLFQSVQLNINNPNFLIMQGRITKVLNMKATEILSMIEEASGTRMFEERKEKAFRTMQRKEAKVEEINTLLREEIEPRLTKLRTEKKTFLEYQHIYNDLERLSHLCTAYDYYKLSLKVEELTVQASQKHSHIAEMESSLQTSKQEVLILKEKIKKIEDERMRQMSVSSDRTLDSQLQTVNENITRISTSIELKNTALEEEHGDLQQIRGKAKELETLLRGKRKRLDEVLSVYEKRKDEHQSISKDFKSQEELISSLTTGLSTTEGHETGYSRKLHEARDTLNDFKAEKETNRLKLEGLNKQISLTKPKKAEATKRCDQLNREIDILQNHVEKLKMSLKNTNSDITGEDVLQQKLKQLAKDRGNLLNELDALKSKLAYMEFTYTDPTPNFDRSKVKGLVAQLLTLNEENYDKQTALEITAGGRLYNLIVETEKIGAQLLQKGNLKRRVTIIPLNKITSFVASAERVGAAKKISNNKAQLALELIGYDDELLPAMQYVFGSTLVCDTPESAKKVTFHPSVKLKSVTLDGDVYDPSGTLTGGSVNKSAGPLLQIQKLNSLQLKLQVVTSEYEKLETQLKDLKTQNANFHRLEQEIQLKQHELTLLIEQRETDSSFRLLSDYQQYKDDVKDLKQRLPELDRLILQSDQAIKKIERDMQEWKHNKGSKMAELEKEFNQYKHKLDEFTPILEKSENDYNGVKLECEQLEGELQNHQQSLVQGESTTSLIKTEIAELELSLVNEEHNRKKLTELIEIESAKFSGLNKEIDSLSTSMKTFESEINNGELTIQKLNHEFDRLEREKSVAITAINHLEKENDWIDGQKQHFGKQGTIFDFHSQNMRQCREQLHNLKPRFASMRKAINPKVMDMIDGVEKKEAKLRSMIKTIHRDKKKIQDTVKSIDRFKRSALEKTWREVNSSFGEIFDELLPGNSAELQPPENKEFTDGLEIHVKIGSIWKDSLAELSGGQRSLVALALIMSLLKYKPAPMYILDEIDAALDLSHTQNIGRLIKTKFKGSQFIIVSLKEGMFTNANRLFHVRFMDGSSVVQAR
Nature of the assay: inhibition of γ-32P labelling, autoradiography. The note with it: 1 mM nucleotide pre-incubated 5 min; ATP 8 nM hot, 50 nM cold; 30 min, 30 °C. It is filed as biochemical.

Assay [2] deals with T1, Cut3–Cut14 (condensin SMC heterodimer; Cut3/SMC4–Cut14/SMC2). The assay can be described thus: thiophosphorylation, PNBM alkylation, anti-thiophosphate ester western blot. The format is biochemical. The conditions noted are these: covalent thiophosphoryl transfer to Cut3; 10 mM ATPγS.

As for `Nc1ncnc2c1ncn2[C@@H]1O[C@H](COP(=O)(O)OP(=O)(O)NP(=O)(O)O)[C@@H](O)[C@H]1O` [AMP-PNP], the “inhibition of γ-32P labelling, autoradiography” value in assay [1] is reported as “Some labelling occurred in an excess of AMP-PNP”.
For `Nc1ncnc2c1ncn2[C@@H]1O[C@H](COP(=O)(O)OP(=O)(O)OP(O)(O)=S)[C@@H](O)[C@H]1O` [ATPγS], the “thiophosphorylation, PNBM alkylation, anti-thiophosphate ester western blot” value in assay [2] is on record as “Antibody against ATPγS detected Cut3 protein in the heterodimer after incubation in the presence of ATPγS”.
